Broadly, the Kd is the constant that tells how readily two partners part at equilibrium.

We go through 17 compounds from US6569638B1, “Method for screening compounds for the treatment of neoplasia” (Cell Pathways, Inc, priority 2000, dated 2003).

Like-named read-outs stand apart in the source and are kept apart here.

Assay [1] has as its target T1, GST-cGB-PDE5 fusion protein (cGMP binding sites of human PDE5A) (Homo sapiens, UniProt O76074).
T1 construct: made in house; host or cells: E. coli BL21 (DE3)
The assay is described as follows: cGMP binding assay (3H-cGMP competition).

Assay [2] has as its system PKG in SW480 colon cancer cells. The assay is described as follows: PKG assay of drug-treated cell lysates (GST-cGB-PDE5 solid phase substrate). The settings on record: 48 hrs, exisulind 200, 400, 600 μM, E4021 0.1, 1, 10 μM, with and without added cGMP. Format: cell-based, human. As to the method:
To test the effect of cGMP-specific PDE inhibition on neoplasia containing the APC mutation, SW480 colon cancer cells were employed. SW 480 is known to contain the APC mutation. About 5 million SW480 cells in RPMI 5% serum are added to each of 8 dishes:
2-10 cm dishes—30 μL DMSO vehicle control (without drug),
3-10 cm dishes—200 μM, 400 μM, 600 μM exisulind in DMSO, and
The dishes are incubated for 48 hrs at 37° C. in 5% CO2 incubator.
The liquid media are aspirated from the dishes (the cells will attach themselves to the dishes). The attached cells are washed in each dish with cold PBS, and 200 μL cell lysis buffer (i.e., 50 mM Tris-HCl, 1% NP-40, 150 mM NaCl, 1 mM EDTA, 1 mM Na3VO4, 1 mM NaF, 500 μM IBMX with proteinase inhibitors) is added to each dish. Immediately after the cell lysis buffer is added, the lysed cells are collected by scraping the cells off each dish. The cell lysate from each dish is transferred to a microfuge tube, and the microfuge tubes are incubated at 4° C. for 15 minutes while gently agitating the microfuge tubes to allow the cells to lyse completely. […]
For each control or drug cell lysate sample to be evaluated, the reaction is started by adding phosphorylation buffer containing 10 μCi ^32P-γ-ATP solution (200 μM ATP, 4.5 mM MgCl; 5 mM KH2PO4; 5 mM K2HPO4;) to each mixture. […]

Assay [3] concerns JNK1 in SW480 colon cancer cells. Kind of assay: JNK1 immunoprecipitation in vitro kinase assay with GST-c-Jun(1-79). The conditions noted are these: for inhibition of Compound B-induced JNK1 activation: SW480 cells pre-treated 2 μM for 2 hours, then Compound B 1 or 10 μM for one hour; for JNK1 activation by cGMP modulators: SW480 cells, one hour, dbcGMP 500 μM, dbcAMP 500 μM, YC-1 50 μM, MY-5445 50 μM, dipyridamole 10 μM. The assay is classed as cell-based, human. As to the method: The cells were lysed, JNK1 immunoprecipitated with an anti-JNK1 antibody, and the immunoprecipitate (“IP”) assayed for in vitro kinase activity with GST-c-Jun(1-79) as the substrate. The experiments were repeated three times with similar results. Fold activation was measured using a Phosphor Imager.
FIG. 1B: SW480 cells were treated with Compound A (1 μM) for the indicated time periods and in vitro JNK1 kinase activity was determined as described above.
FIG. 2A SW480 cells were treated with either DMSO (−) or Compound A, 0.1 μM; dbcGMP, 500 μM; YC-1, 50 μM; MY-5445, 50 μM; dipyridamole, 10 μM or dbcAMP, 500 μM for one hour. The cells were lysed, JNK1 immunoprecipitated, and the IP assayed for in vitro kinase activity as described in FIG. 1A.
FIG. 2B SW480 cells were pre-treated with either DMSO, KT5720 (2 μM) or Rp-8-pCPT-cGMPS (2 μM) for 2 hours and then treated with Compound B (0, 1 or 10 μM) for one hour. The cells were lysed and assayed for JNK1 activation in the IP as described above.
These concentrations were chosen since they provided optimal induction of apoptosis. Endogenous JNK1 was immunoprecipitated with anti-JNK1 antibody and in vitro kinase assays were performed with GST-c-Jun(1-79) as the substrate. […]
However, the precise role of PKG in signal transduction pathways is not known. […] As a control, KT5720 was used as a protein kinase A (“PKA”)-specific inhibitor. SW480 cells were treated with either DMSO, KT5720 (2 μM) or Rp-8-pCPT-cGMPS (2 μM) for 2 hours and then treated with either DMSO or Compound B (1 or 10 μM) for one hour. Cell extracts were collected and assayed for JNK1 activation.

A further assay has as its system PARP in SW480 cells. The assay is described as follows: PARP cleavage by Western blot. The assay is classed as cell-based, human. The conditions noted are these: SW480 cells pre-incubated 2 μM for 2 hours, then Compound A 1 μM 2 days. As to the method:
SW480 cells were pre-treated with either DMSO (−) or Rp-8-pCPT-cGMPS (2 μM) for 2 hours and then treated with either DMSO (−) or Compound A (1 μM). Both the floating and attached cells were collected after 2 days, and the cell lysates were assayed for PARP cleavage by Western blotting with anti-PARP antibody. Fold increase in PARP cleavage was measured by densitometry of the 85 kD fragment.
Finally, we investigated whether activation of the PKG pathway is required for the induction of apoptosis by SAANDs. SW480 cells were treated with either DMSO or the PKG inhibitor Rp-8-pCPT-cGMPS (2 μM) for 2 hours and then the cells were treated with either DMSO or Compound A (1 μM) for 2 days. Both the floating and attached cells were collected, and the cell lysates were assayed for poly (ADP-ribose) polymerase (PARP) cleavage by Western blotting with an anti-PARP antibody. PARP is a 116 kD nuclear enzyme that converts NAD to nicotinamide and protein-linked ADP-ribose polymers, which are important for DNA repair and genomic maintenance. In cells that are undergoing apoptosis the 116 kD PARP protein is cleaved by caspase-3 into 85 and 25 kD fragments, thus resulting in loss of normal PARP function. This inactivation of PARP apparently prevents depletion of cellular levels of NAD and ATP, which are thought to be required for later events in apoptosis.

For a further assay, the target named is native bovine PDE5 (Bos taurus, UniProt Q28156). The conditions noted are these: read-out: Kd of cGMP binding; cited from earlier work.
Setting [4] is: at high concentration (100 μM) against cGMP 2 μM.

T1 sequence (O76074 46-539 limits assumed): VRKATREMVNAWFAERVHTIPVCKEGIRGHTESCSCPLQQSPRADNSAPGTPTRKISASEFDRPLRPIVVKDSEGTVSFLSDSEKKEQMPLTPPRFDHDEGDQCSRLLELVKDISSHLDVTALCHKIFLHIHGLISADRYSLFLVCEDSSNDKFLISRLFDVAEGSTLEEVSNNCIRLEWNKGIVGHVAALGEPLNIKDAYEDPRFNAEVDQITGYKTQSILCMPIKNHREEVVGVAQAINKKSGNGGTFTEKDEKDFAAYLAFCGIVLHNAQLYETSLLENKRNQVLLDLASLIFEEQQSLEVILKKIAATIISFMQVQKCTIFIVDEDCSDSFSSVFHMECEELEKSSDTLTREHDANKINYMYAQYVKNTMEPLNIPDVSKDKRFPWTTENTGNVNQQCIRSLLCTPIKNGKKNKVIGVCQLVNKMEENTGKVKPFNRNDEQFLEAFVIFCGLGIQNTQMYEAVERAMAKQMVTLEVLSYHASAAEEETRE

Consider `Nc1ccn([C@@H]2O[C@@H]3COP(=O)(O)O[C@H]3[C@H]2O)c(=O)n1` [cCMP, cyclic CMP], for which the “competition with cGMP for the cGMP binding sites of GST-cGB-PDE5” value (from here on “competition with cGMP”) in assay [1] (3H-cGMP 2 μM, 22° C., 1 hour) was “did not compete with cGMP in binding”.
For the compound `O=C([O-])C1CCN(c2nc(NCc3ccc4c(c3)OCO4)c3cc(Cl)ccc3n2)CC1.[Na+]` [Compound E4021], the “competition with cGMP” value in assay [1] (3H-cGMP 2 μM, 22° C., 1 hour) is “None of the PDE5 inhibitors showed any competition with cGMP”. For the same compound, the “PKG activity relative to control” value in assay [2] is reported as “do not exhibit PKG activation relative to control”.
In the case of `Nc1nc2c(nc(Br)n2[C@@H]2O[C@@H]3COP(=O)(O)O[C@H]3[C@H]2O)c(=O)[nH]1` [Compound 8-bromo-cGMP, 8-bromo-cGMP], in assay [1] (setting [4]), the “competition with cGMP” value was “can partially compete with cGMP”.
As to `O=c1[nH]cnc2c1ncn2[C@@H]1O[C@@H]2COP(=O)(O)O[C@H]2[C@H]1O` [Cyclic IMP, cyclic IMP], the “competition with cGMP” value in assay [1] (setting [4]) is “can partially compete with cGMP”.
As to `Nc1nc2c(nc(Sc3ccc(Cl)cc3)n2[C@@H]2O[C@@H]3CO[P@@](=O)(S)O[C@H]3[C@H]2O)c(=O)[nH]1` [Rp-8-pCPT-cGMP, reference compound], the “inhibition of Compound B-induced JNK1 activation” value in assay [3] is listed as “strongly inhibited”. In the assay with PARP in SW480 cells, the “inhibition of Compound A-induced PARP cleavage” value was “significantly inhibited”.
Consider `CCCOc1ccccc1-c1nc2nn[nH]c2c(=O)[nH]1` [zaprinast], for which the “competition with cGMP” value in assay [1] (3H-cGMP 2 μM, 22° C., 1 hour) is listed as “None of the PDE5 inhibitors showed any competition with cGMP”.
Turning to `OCCN(CCO)c1nc(N2CCCCC2)c2nc(N(CCO)CCO)nc(N3CCCCC3)c2n1` [dipyridamole], the “JNK1 activation by cGMP modulators” value in assay [3] is on record as “also activated JNK1”.
Same read-out and setting: with `CCCC(=O)Nc1nc2c(ncn2C2OC3COP(=O)([O-])OC3C2OC(=O)CCC)c(=O)[nH]1.[Na+]` (stereo not drawn) [dbcGMP, Dibutyrylguanosine 3′:5′-cyclic monophosphate] the entry was “activated JNK1”; with `Clc1cccc(Nc2nnc(-c3ccccc3)c3ccccc23)c1` [MY-5445, 1-(3-chloroanilino)-4-phenyphthalazine], “also activated JNK1”.
On to `CCCCOC1C2OP(=O)(O)OCC2OC1n1cnc2c(=O)[nH]c(N)nc21` (stereo not drawn) [2′-O-butyl-cGMP], for which, in assay [1] (3H-cGMP 2 μM, 22° C., 1 hour), the “competition with cGMP” value is “did not compete with cGMP in binding”.
`CCCCCCOC(=O)[C@]1(O)C[C@@H]2O[C@@]1(C)n1c3ccccc3c3c4c(c5c6ccccc6n2c5c31)C(=O)NC4` [KT5720]: the “inhibition of Compound B-induced JNK1 activation” value in assay [3] is “no inhibitory activity”.
For the compound `CCCC(=O)Nc1ncnc2c1ncn2[C@@H]1O[C@@H]2COP(=O)(O)O[C@H]2[C@H]1OC(=O)CCC` [dbcAMP, dibutyryladenosine 3′:5′-cyclic monophosphate], in assay [3], the “JNK1 activation by cGMP modulators” value was “inactive”.
On to `Nc1nc2c(ncn2[C@@H]2O[C@@H]3COP(=O)(O)O[C@H]3[C@H]2O)c(=O)[nH]1` [cGMP, cyclic 3′,5′-guanosine monophosphate], for which the Kd is 1600 ± 200 nM in assay [1] and 1300 nM on native bovine PDE5. In assay [1] (3H-cGMP 2 μM, 22° C., 1 hour), the “competition with cGMP” value was “specifically binds GST-cGB-PDE5 protein”.
For the compound `OCc1ccc(-c2nn(Cc3ccccc3)c3ccccc23)o1` [YC-1], the “JNK1 activation by cGMP modulators” value in assay [3] is listed as “also activated JNK1”.
In the case of `CCCCOC1C2OP(=O)(O)OCC2OC1n1cnc2c(N)ncnc21` (stereo not drawn) [2′-O-butyl-cAMP], the “competition with cGMP” value in assay [1] (3H-cGMP 2 μM, 22° C., 1 hour) is given as “did not compete with cGMP in binding”.
For `O=c1ccn([C@@H]2O[C@@H]3COP(=O)(O)O[C@H]3[C@H]2O)c(=O)[nH]1` [cUMP, cyclic UMP], in assay [1] (3H-cGMP 2 μM, 22° C., 1 hour), the “competition with cGMP” value is reported as “did not compete with cGMP in binding”.
As to `Nc1ncnc2c1ncn2[C@@H]1O[C@@H]2COP(=O)(O)O[C@H]2[C@H]1O` [Cyclic AMP], the “competition with cGMP” value in assay [1] is “did not compete with cGMP in binding”.
